Laboratory results published in publication PMC5218480 (PLoS ONE, 2017).

Test system: MV-4-11 cells
Experiment: Gene expression microarray analysis (Affymetrix PrimeView) and GSEA
Format: cell-based, human
Design: RFU PODN (11730768_x_at) / Fold change /veh PODN (11730768_x_at) / RFU LINC00158 (11744669_a_at) / Fold change /veh LINC00158 (11744669_a_at) / RFU DUSP10 (11751237_a_at) / Fold change /veh DUSP10 (11751237_a_at) / RFU ID3 (11757404_x_at) / Fold change /veh ID3 (11757404_x_at) / RFU PLEKHG5 (11737974_s_at) / Fold change /veh PLEKHG5 (11737974_s_at) / RFU LRRC4B (11730491_at) / Fold change /veh LRRC4B (11730491_at) / RFU GIMAP4 (11747438_a_at) / Fold change /veh GIMAP4 (11747438_a_at) / RFU KRT8 (11758183_x_at) / Fold change /veh KRT8 (11758183_x_at) / RFU CNN1 (11734310_a_at) / Fold change /veh CNN1 (11734310_a_at) / RFU VPS37D (11726825_at) / Fold change /veh VPS37D (11726825_at) / RFU C10orf10 (11716522_x_at) / Fold change /veh C10orf10 (11716522_x_at) / RFU KIR2DL2 /// KIR2DL4 /// KIR2DL5A /// KIR2DL5B /// KIR2DS1 /// KIR2DS2 /// KIR2DS3 /// KIR2DS4 /// KIR3DL3 /// KIR3DL3 /// KIR3DS1 (11738374_at) / Fold change /veh KIR2DL2 /// KIR2DL4 /// KIR2DL5A /// KIR2DL5B /// KIR2DS1 /// KIR2DS2 /// KIR2DS3 /// KIR2DS4 /// KIR3DL3 /// KIR3DL3 /// KIR3DS1 (11738374_at) / RFU C1QL1 (11718748_at) / Fold change /veh C1QL1 (11718748_at) / RFU TMPRSS4 (11747572_a_at) / Fold change /veh TMPRSS4 (11747572_a_at) / RFU HAMP (11756126_x_at) / Fold change /veh HAMP (11756126_x_at) / RFU RNFT2 (11725882_a_at) / Fold change /veh RNFT2 (11725882_a_at) / RFU NR4A2 (11747474_a_at) / Fold change /veh NR4A2 (11747474_a_at) / RFU ABCC12 (11746883_a_at) / Fold change /veh ABCC12 (11746883_a_at) / RFU TMEM136 (11760407_x_at) / Fold change /veh TMEM136 (11760407_x_at) / RFU CLDN22 /// WWC2 (11732394_at) / Fold change /veh CLDN22 /// WWC2 (11732394_at) / RFU HLA-DPB1 (11760878_x_at) / Fold change /veh HLA-DPB1 (11760878_x_at) / RFU SPINT1 (11716480_a_at) / Fold change /veh SPINT1 (11716480_a_at) / RFU GAP43 (11754022_s_at) / Fold change /veh GAP43 (11754022_s_at) / RFU A4GNT (11735810_at) / Fold change /veh A4GNT (11735810_at) / RFU PRB3 (11715151_x_at) / Fold change /veh PRB3 (11715151_x_at) / RFU TUBB4B (11761932_at) / Fold change /veh TUBB4B (11761932_at) / RFU CAPN14 (11732068_a_at) / Fold change /veh CAPN14 (11732068_a_at) / RFU TMCC2 (11721928_a_at) / Fold change /veh TMCC2 (11721928_a_at) / RFU IRGQ (11745062_a_at) / Fold change /veh IRGQ (11745062_a_at) / RFU FAM174B (11720279_a_at) / Fold change /veh FAM174B (11720279_a_at) / RFU TMPRSS4 (11748680_a_at) / Fold change /veh TMPRSS4 (11748680_a_at) / RFU FAM212B (11763350_a_at) / Fold change /veh FAM212B (11763350_a_at) / RFU PLEKHG5 (11743358_a_at) / Fold change /veh PLEKHG5 (11743358_a_at) / RFU ZSCAN30 (11745921_a_at) / Fold change /veh ZSCAN30 (11745921_a_at) / RFU CMKLR1 (11741424_a_at) / Fold change /veh CMKLR1 (11741424_a_at) / RFU LOC101060620 /// MAPK8IP1 (11723275_at) / Fold change /veh LOC101060620 /// MAPK8IP1 (11723275_at) / RFU SPTSSB (11747773_x_at) / Fold change /veh SPTSSB (11747773_x_at) / RFU PRSS12 (11739890_at) / Fold change /veh PRSS12 (11739890_at) / RFU BIN1 (11741810_x_at) / Fold change /veh BIN1 (11741810_x_at) / RFU WNT11 (11732464_a_at) / Fold change /veh WNT11 (11732464_a_at) / RFU C10orf10 (11716521_a_at) / Fold change /veh C10orf10 (11716521_a_at) / RFU C5orf56 (11738089_at) / Fold change /veh C5orf56 (11738089_at) / RFU CYB561 (11721691_x_at) / Fold change /veh CYB561 (11721691_x_at) / RFU ANKRD19P (11752326_a_at) / Fold change /veh ANKRD19P (11752326_a_at) / RFU OR2T12 /// OR2T33 /// OR2T8 (11738714_s_at) / Fold change /veh OR2T12 /// OR2T33 /// OR2T8 (11738714_s_at) / RFU VCAN (11748164_a_at) / Fold change /veh VCAN (11748164_a_at) / RFU JSRP1 (11732532_at) / Fold change /veh JSRP1 (11732532_at) / RFU KRTAP10-11 (11738290_x_at) / Fold change /veh KRTAP10-11 (11738290_x_at) / RFU MYO3A (11730013_a_at) / Fold change /veh MYO3A (11730013_a_at) / RFU EBF3 (11725865_a_at) / Fold change /veh EBF3 (11725865_a_at) / RFU CAMK2N1 (11719241_x_at) / Fold change /veh CAMK2N1 (11719241_x_at) / RFU C5orf56 (11738088_a_at) / Fold change /veh C5orf56 (11738088_a_at) / RFU OLFML3 (11715873_a_at) / Fold change /veh OLFML3 (11715873_a_at) / RFU LOC100653217 /// NTM (11731650_a_at) / Fold change /veh LOC100653217 /// NTM (11731650_a_at) / RFU MAPK11 (11762145_a_at) / Fold change /veh MAPK11 (11762145_a_at) / RFU FIZ1 (11724087_x_at) / Fold change /veh FIZ1 (11724087_x_at) / RFU OASL (11726364_x_at) / Fold change /veh OASL (11726364_x_at) / RFU SOX15 (11748057_x_at) / Fold change /veh SOX15 (11748057_x_at) / RFU CD79A (11719716_a_at) / Fold change /veh CD79A (11719716_a_at) / RFU HIST1H1D (11736915_at) / Fold change /veh HIST1H1D (11736915_at) / RFU CASKIN2 (11723855_a_at) / Fold change /veh CASKIN2 (11723855_a_at) / RFU LOC730098 (11760151_x_at) / Fold change /veh LOC730098 (11760151_x_at) / RFU OR4N2 (11742367_at) / Fold change /veh OR4N2 (11742367_at) / RFU PRRT2 (11749266_a_at) / Fold change /veh PRRT2 (11749266_a_at) / RFU SNX32 (11753110_a_at) / Fold change /veh SNX32 (11753110_a_at) / RFU CDHR5 (11726645_a_at) / Fold change /veh CDHR5 (11726645_a_at) / RFU RCAN1 (11760418_a_at) / Fold change /veh RCAN1 (11760418_a_at) / RFU FAM167A (11723789_a_at) / Fold change /veh FAM167A (11723789_a_at) / RFU FAM26E (11764081_at) / Fold change /veh FAM26E (11764081_at) / RFU ISYNA1 (11749810_s_at) / Fold change /veh ISYNA1 (11749810_s_at) / RFU ACY1 (11761880_at) / Fold change /veh ACY1 (11761880_at) / RFU 11764098_at / Fold change /veh 11764098_at / RFU SAMD14 (11745864_x_at) / Fold change /veh SAMD14 (11745864_x_at) / RFU NPB (11741838_a_at) / Fold change /veh NPB (11741838_a_at) / RFU TMPRSS6 (11731388_a_at) / Fold change /veh TMPRSS6 (11731388_a_at) / RFU KRTAP10-2 (11738614_at) / Fold change /veh KRTAP10-2 (11738614_at) / RFU ARHGAP8 /// PRR5-ARHGAP8 (11727945_x_at) / Fold change /veh ARHGAP8 /// PRR5-ARHGAP8 (11727945_x_at) / RFU KRTAP5-7 /// NADSYN1 (11734609_at) / Fold change /veh KRTAP5-7 /// NADSYN1 (11734609_at) / RFU RASL12 (11751679_a_at) / Fold change /veh RASL12 (11751679_a_at) / RFU CDKN2B (11736163_a_at) / Fold change /veh CDKN2B (11736163_a_at) / RFU PRF1 (11729649_at) / Fold change /veh PRF1 (11729649_at) / RFU, ZNF638 /// ZNF638-IT1 / Fold change vs veh, ZNF638 /// ZNF638-IT1 / RFU, PANK3 / Fold change vs veh, PANK3 / RFU, SH3YL1 / Fold change vs veh, SH3YL1 / RFU, ZEB2 / Fold change vs veh, ZEB2 / RFU, NRIP1 / Fold change vs veh, NRIP1 / RFU, PTTG1IP / Fold change vs veh, PTTG1IP / RFU, CAPN2 / Fold change vs veh, CAPN2 / RFU, MED14 / Fold change vs veh, MED14 / RFU, SNORA58 / Fold change vs veh, SNORA58 / RFU, C1orf63 / Fold change vs veh, C1orf63 / RFU, LRRFIP1 / Fold change vs veh, LRRFIP1 / RFU, NDUFAF7 / Fold change vs veh, NDUFAF7 / RFU, SLC12A2 / Fold change vs veh, SLC12A2 / RFU, IBTK / Fold change vs veh, IBTK / RFU, ESF1 / Fold change vs veh, ESF1 / Fold change vs veh, TMEM50B / RFU, TAOK1 / Fold change vs veh, TAOK1 / RFU, ACBD3 / Fold change vs veh, ACBD3 / RFU, TMA16 / Fold change vs veh, TMA16 / RFU, RWDD3 / Fold change vs veh, RWDD3 / RFU, BCAT1 / Fold change vs veh, BCAT1 / RFU, EDEM3 / Fold change vs veh, EDEM3 / RFU, TMEM33 / Fold change vs veh, TMEM33 / RFU, WDR75 / Fold change vs veh, WDR75 / RFU, AHCTF1 / Fold change vs veh, AHCTF1 / RFU, TFRC / Fold change vs veh, TFRC / RFU, ZDHHC17 / Fold change vs veh, ZDHHC17 / RFU, NOM1 / Fold change vs veh, NOM1 / RFU, ARL8B / Fold change vs veh, ARL8B / RFU, ZBTB11 / Fold change vs veh, ZBTB11 / RFU, TAMM41 / Fold change vs veh, TAMM41 / RFU, KIAA1704 /// LOC100996395 / Fold change vs veh, KIAA1704 /// LOC100996395 / RFU, ING1 / Fold change vs veh, ING1 / RFU, TRMT61B / Fold change vs veh, TRMT61B / RFU, FUBP3 / Fold change vs veh, FUBP3 / RFU, TP53 / Fold change vs veh, TP53 / RFU, TNKS2 / Fold change vs veh, TNKS2 / RFU, ZFP14 / Fold change vs veh, ZFP14 / RFU, ACTR2 / Fold change vs veh, ACTR2 / RFU, PPP3R1 / Fold change vs veh, PPP3R1 / RFU, PIK3R1 / Fold change vs veh, PIK3R1 / RFU, HNRNPA1 / Fold change vs veh, HNRNPA1 / RFU, RNF170 / Fold change vs veh, RNF170 / RFU, ZNF28 / Fold change vs veh, ZNF28 / RFU, RNGTT / Fold change vs veh, RNGTT / RFU, OGT / Fold change vs veh, OGT / RFU, BRD1 / Fold change vs veh, BRD1 / RFU, MARS / Fold change vs veh, MARS / RFU, ZNF655 / Fold change vs veh, ZNF655 / RFU, FAHD1 / Fold change vs veh, FAHD1 / RFU, BDP1 / Fold change vs veh, BDP1 / RFU, LRRCC1 / Fold change vs veh, LRRCC1 / RFU, ARID1A / Fold change vs veh, ARID1A / RFU, ZNF146 / Fold change vs veh, ZNF146 / RFU, ZNF330 / Fold change vs veh, ZNF330 / RFU, GPN3 / Fold change vs veh, GPN3 / RFU, C9orf123 / Fold change vs veh, C9orf123 / RFU, N4BP2L2 / Fold change vs veh, N4BP2L2 / RFU, ARFIP1 / Fold change vs veh, ARFIP1 / RFU, FAM179B / Fold change vs veh, FAM179B / RFU, BCL10 / Fold change vs veh, BCL10 / RFU, UHRF1BP1L / Fold change vs veh, UHRF1BP1L / RFU, BET1 / Fold change vs veh, BET1 / RFU, CNOT2 / Fold change vs veh, CNOT2 / RFU, ZNF268 / Fold change vs veh, ZNF268 / Fold change vs veh, ZNF507 / RFU, DGCR2 / Fold change vs veh, DGCR2 / RFU, WDSUB1 / Fold change vs veh, WDSUB1 / Fold change vs veh, HSP90B1 /// MIR3652 / RFU, ADSS / Fold change vs veh, ADSS / RFU, GK / Fold change vs veh, GK / RFU, ZNF148 / Fold change vs veh, ZNF148 / RFU, TAF9 / Fold change vs veh, TAF9 / RFU, SLC1A5 / Fold change vs veh, SLC1A5 / RFU, SLMO2 / Fold change vs veh, SLMO2 / RFU, ABCC4 / Fold change vs veh, ABCC4 / RFU, LOC101060439 /// RAP1B / Fold change vs veh, LOC101060439 /// RAP1B / RFU, RFX7 / Fold change vs veh, RFX7 / RFU, GTPBP10 / Fold change vs veh, GTPBP10 / RFU, CNEP1R1 / Fold change vs veh, CNEP1R1 / RFU, BIVM-ERCC5 /// ERCC5 / Fold change vs veh, BIVM-ERCC5 /// ERCC5 / RFU, ILF3 / Fold change vs veh, ILF3 / RFU 11762660_at / Fold change /veh 11762660_at / RFU VCAN (11757783_s_at) / Fold change /veh VCAN (11757783_s_at) / RFU DDX43 (11728927_at) / Fold change /veh DDX43 (11728927_at) / RFU KRT8 (11758188_x_at) / Fold change /veh KRT8 (11758188_x_at) / RFU NKD1 (11759106_at) / Fold change /veh NKD1 (11759106_at) / RFU SRD5A1 (11742802_a_at) / Fold change /veh SRD5A1 (11742802_a_at) / RFU TPSAB1 /// TPSB2 (11721975_s_at) / Fold change /veh TPSAB1 /// TPSB2 (11721975_s_at) / RFU GSTM3 (11746129_a_at) / Fold change /veh GSTM3 (11746129_a_at) / RFU IL23R (11737362_x_at) / Fold change /veh IL23R (11737362_x_at) / RFU TMEM51 (11727254_a_at) / Fold change /veh TMEM51 (11727254_a_at) / RFU PIWIL2 (11732686_x_at) / Fold change /veh PIWIL2 (11732686_x_at) / RFU ORM1 (11744905_x_at) / Fold change /veh ORM1 (11744905_x_at) / RFU CCDC152 (11743942_at) / Fold change /veh CCDC152 (11743942_at) / RFU ECM1 (11717891_a_at) / Fold change /veh ECM1 (11717891_a_at) / RFU IL23R (11748794_a_at) / Fold change /veh IL23R (11748794_a_at) / RFU TNFAIP8L3 (11732012_x_at) / Fold change /veh TNFAIP8L3 (11732012_x_at) / RFU MBOAT4 (11741988_at) / Fold change /veh MBOAT4 (11741988_at) / RFU 11764193_at / Fold change /veh 11764193_at / RFU TMEM53 (11763286_at) / Fold change /veh TMEM53 (11763286_at) / RFU MAGEB2 (11727129_at) / Fold change /veh MAGEB2 (11727129_at) / RFU TMEM200A (11744735_a_at) / Fold change /veh TMEM200A (11744735_a_at) / RFU CCDC152 (11751479_a_at) / Fold change /veh CCDC152 (11751479_a_at) / RFU FAM211A (11726209_a_at) / Fold change /veh FAM211A (11726209_a_at) / RFU RGS16 (11746705_a_at) / Fold change /veh RGS16 (11746705_a_at) / RFU VCAN (11755009_s_at) / Fold change /veh VCAN (11755009_s_at) / RFU RHOB (11743442_s_at) / Fold change /veh RHOB (11743442_s_at) / RFU RGS16 (11720943_a_at) / Fold change /veh RGS16 (11720943_a_at) / RFU RGS16 (11720944_at) / Fold change /veh RGS16 (11720944_at) / RFU, VPS4B / Fold change vs veh, VPS4B / RFU, CREB1 / Fold change vs veh, CREB1 / RFU, DNAJC13 / Fold change vs veh, DNAJC13 / RFU, GNAQ / Fold change vs veh, GNAQ / RFU, CDK5R1 / Fold change vs veh, CDK5R1 / RFU, ZRANB3 / Fold change vs veh, ZRANB3 / RFU, CUL4A / Fold change vs veh, CUL4A / RFU, CCNY / Fold change vs veh, CCNY / RFU, UFL1 / Fold change vs veh, UFL1 / RFU, COG3 / Fold change vs veh, COG3 / RFU, DIAPH2 / Fold change vs veh, DIAPH2 / RFU, SKA2 / Fold change vs veh, SKA2 / RFU, AFF3 / Fold change vs veh, AFF3 / RFU, LMF1 / Fold change vs veh, LMF1 / RFU, IPO11 / Fold change vs veh, IPO11 / RFU, DFFB / Fold change vs veh, DFFB / RFU, FOXP1 / Fold change vs veh, FOXP1 / RFU, CARD8 / Fold change vs veh, CARD8 / RFU, STRN3 / Fold change vs veh, STRN3 / RFU, ADK / Fold change vs veh, ADK / RFU, RASSF2 / Fold change vs veh, RASSF2 / RFU, WIPF1 / Fold change vs veh, WIPF1 / RFU, LARP1B / Fold change vs veh, LARP1B / RFU, RASA1 / Fold change vs veh, RASA1 / RFU, RB1 / Fold change vs veh, RB1 / RFU, PPFIA1 / Fold change vs veh, PPFIA1 / RFU, MAT2A / Fold change vs veh, MAT2A / RFU, CCT5 / Fold change vs veh, CCT5 / RFU, WDR92 / Fold change vs veh, WDR92 / RFU, CUX1 / Fold change vs veh, CUX1 / RFU, TTC7A / Fold change vs veh, TTC7A / RFU, TMEM135 / Fold change vs veh, TMEM135 / RFU, DEPTOR / Fold change vs veh, DEPTOR / RFU, CPM / Fold change vs veh, CPM / RFU, DNAJB6 / Fold change vs veh, DNAJB6 / RFU, CACNA2D3 / Fold change vs veh, CACNA2D3 / RFU, DTX4 / Fold change vs veh, DTX4 / RFU, TFCP2 / Fold change vs veh, TFCP2 / RFU, GMCL1 /// GMCL1P1 / Fold change vs veh, GMCL1 /// GMCL1P1 / RFU, AEBP2 / Fold change vs veh, AEBP2 / RFU, SNHG1 /// SNORD22 /// SNORD25 /// SNORD26 /// SNORD27 /// SNORD28 /// SNORD29 /// SNORD31 / Fold change vs veh, SNHG1 /// SNORD22 /// SNORD25 /// SNORD26 /// SNORD27 /// SNORD28 /// SNORD29 /// SNORD31 / Fold change (Aza/veh), C12orf56 (ProbeSet 11735607_a_at) / Fold change (ACY-1035/veh), C12orf56 (ProbeSet 11735607_a_at) / Fold change (Aza/veh), FGFR1OP (ProbeSet 11751329_s_at) / Fold change (ACY-1035/veh), FGFR1OP (ProbeSet 11751329_s_at) / Fold change (Aza/veh), VPS36 (ProbeSet 11739960_a_at) / Fold change (ACY-1035/veh), VPS36 (ProbeSet 11739960_a_at) / RFU SYPL1 (11715823_x_at) / Fold change /veh SYPL1 (11715823_x_at) / RFU IGFBP7 (11715501_s_at) / Fold change /veh IGFBP7 (11715501_s_at) / RFU REEP3 (11722064_at) / Fold change /veh REEP3 (11722064_at) / RFU IGLL1 (11728026_x_at) / Fold change /veh IGLL1 (11728026_x_at): dose or concentration left out as unconfirmed
Conditions: ProbeSet 11725902_s_at; LIST D

## Nc1ccc(-c2cccs2)cc1NC(=O)c1ccc2c(c1)cc(C1CC1)n2CCN1CCOCC1 [ACY-1035]
  RFU, TMEM135: 107.94 RFU
